We go through 15 compounds from PubChem BioAssay AID248 (DTP/NCI, 2004).

For this experiment, the system named is L1210 leukemia ip in BDF1 mice, survival T/C. Description: NCI In Vivo Anticancer Drug Screen. Data for tumor model L1210 Leukemia (intraperitoneal) in B6D2F1 (BDF1) mice. The note with it: endpoint: mean survival time, higher = longer survival. The procedure, abridged: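 Value reflects the ratio of survival in compound-treated mice to survival in vehicle-treated controls, with both groups carrying the same transplanted tumor.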

Where [1] appears, read: dose: 75.0 mg/kg/injection, schedule: Q01DX001 (ip), vehicle: other.
Where [2] appears, read: dose: 50.0 mg/kg/injection, schedule: Q01DX009 (ip), vehicle: saline with Tween-80.
[3] abbreviates: dose: 100.0 mg/kg/injection, schedule: Q01DX009 (ip), vehicle: saline with Tween-80.
Setting [4] is: dose: 200.0 mg/kg/injection, schedule: Q01DX009 (ip), vehicle: saline with Tween-80.
The mark [5] stands for this setting: dose: 50.0 mg/kg/injection, schedule: Q01DX009 (ip), vehicle: Klucel (hydroxypropylcellulose) (HPC).
[6] abbreviates: dose: 100.0 mg/kg/injection, schedule: Q01DX001 (ip), vehicle: saline with Tween-80.
Setting [7] is: dose: 100.0 mg/kg/injection, schedule: Q01DX009 (ip), vehicle: Klucel (hydroxypropylcellulose) (HPC).
[8] abbreviates: dose: 200.0 mg/kg/injection, schedule: Q01DX001 (ip), vehicle: saline with Tween-80.
[9] abbreviates: dose: 400.0 mg/kg/injection, schedule: Q01DX001 (ip), vehicle: saline with Tween-80.
Setting [10] is: dose: 100.0 mg/kg/injection, schedule: Q01DX001 (ip), vehicle: Klucel (hydroxypropylcellulose) (HPC).
Setting [11] is: dose: 200.0 mg/kg/injection, schedule: Q01DX001 (ip), vehicle: Klucel (hydroxypropylcellulose) (HPC).

Toxic doses and inconclusive results are not listed.

On to `CC[n+]1cccc(NC(=O)c2ccc(NC(=O)c3ccc(C(=O)Nc4ccc(C(=O)Nc5ccc[n+](CC)c5)c(N)c4)cc3)cc2N)c1`, for which the T/C runs as follows: (dose: 2.5 mg/kg/injection, schedule: Q01DX015 (ip), vehicle: other) 187 % of control; (dose: 5.0 mg/kg/injection, schedule: Q01DX015 (ip), vehicle: other) 264 % of control; (dose: 8.0 mg/kg/injection, schedule: Q01DX015 (ip), vehicle: other) 246 % of control; (dose: 10.0 mg/kg/injection, schedule: Q01DX015 (ip), vehicle: other) 150 % of control; (dose: 22.0 mg/kg/injection, schedule: Q01DX001 (ip), vehicle: other) 156 % of control; (dose: 22.0 mg/kg/injection, schedule: Q01DX015 (ip), vehicle: other) 114 % of control. Also, the T/C runs as follows: (dose: 25.0 mg/kg/injection, schedule: Q01DX001 (ip), vehicle: other) 174 % of control; (dose: 33.0 mg/kg/injection, schedule: Q01DX001 (ip), vehicle: other) 168 % of control; (dose: 37.0 mg/kg/injection, schedule: Q01DX015 (ip), vehicle: other) 90 % of control; (dose: 50.0 mg/kg/injection, schedule: Q01DX001 (ip), vehicle: other) 203 % of control; (dose: 55.0 mg/kg/injection, schedule: Q01DX001 (ip), vehicle: other) 219 % of control; under setting [1], 212 % of control.

Regarding `COC1OCC(NC(C)=O)C(OC(C)=O)C1OC(C)=O` (stereo not drawn), the T/C was 104 % of control (dose: 50.0 mg/kg/injection, schedule: Q01DX001 (sc), vehicle: saline); 101 % of control (dose: 100.0 mg/kg/injection, schedule: Q01DX001 (sc), vehicle: saline); 111 % of control (dose: 200.0 mg/kg/injection, schedule: Q01DX001 (sc), vehicle: saline); 95 % of control (dose: 400.0 mg/kg/injection, schedule: Q01DX001 (sc), vehicle: saline).

For `O=C(O)CSC(C(=O)O)c1ccccc1` (stereo not drawn), the T/C is 93 % of control under setting [2]; 92 % of control under setting [3]; 94 % of control (dose: 100.0 mg/kg/injection, schedule: Q04DX003 (ip), vehicle: saline with Tween-80); 93 % of control under setting [4]; 97 % of control (dose: 200.0 mg/kg/injection, schedule: Q04DX003 (ip), vehicle: saline with Tween-80).

`O=C1OC(CN2CCOCC2)CN1/N=C/c1ccc([N+](=O)[O-])o1` (stereo not drawn): the T/C is 104 % of control (dose: 25.0 mg/kg/injection, schedule: Q01DX009 (ip), vehicle: Klucel (hydroxypropylcellulose) (HPC)); 92 % of control under setting [5]; 97 % of control under setting [6]; 101 % of control under setting [7]; 310 % of control (dose: 100.0 mg/kg/injection, schedule: Q04DX002 (ip), vehicle: Klucel (hydroxypropylcellulose) (HPC)); 105 % of control (dose: 100.0 mg/kg/injection, schedule: Q04DX002 (ip), vehicle: saline). For the same compound, the T/C is 97 % of control under setting [8]; 90 % of control (dose: 200.0 mg/kg/injection, schedule: Q04DX002 (ip), vehicle: Klucel (hydroxypropylcellulose) (HPC)); 98 % of control (dose: 200.0 mg/kg/injection, schedule: Q04DX002 (ip), vehicle: saline); 104 % of control under setting [9].

For `COC(=O)C(CCSC)NC(=O)C(NC(=O)c1cnc2ccccc2n1)C(C)C` (stereo not drawn), the T/C is 91 % of control (dose: 100.0 mg/kg/injection, schedule: Q01DX001 (ip), vehicle: carboxymethylcellulose (CMC)); 89 % of control (dose: 200.0 mg/kg/injection, schedule: Q01DX001 (ip), vehicle: carboxymethylcellulose (CMC)); 96 % of control (dose: 400.0 mg/kg/injection, schedule: Q01DX001 (ip), vehicle: carboxymethylcellulose (CMC)).

In the case of `CC(C)N(C(C)C)S(C)(=O)=O`, the T/C (dose: 100.0 mg/kg/injection, schedule: Q04DX003 (ip), vehicle: saline) was 92 % of control.

In the case of `Nc1ccc2cc3ccccc3cc2c1`, the T/C is, setting by setting: (dose: 12.5 mg/kg/injection, schedule: Q01DX015 (ip), vehicle: saline) 104 % of control; (dose: 25.0 mg/kg/injection, schedule: Q01DX015 (ip), vehicle: saline) 95 % of control; (dose: 50.0 mg/kg/injection, schedule: Q01DX015 (ip), vehicle: saline) 95 % of control; (dose: 100.0 mg/kg/injection, schedule: Q01DX015 (ip), vehicle: saline) 97 % of control.

For the compound `COc1cc(N)c2ncccc2c1`, the T/C is 98 % of control (dose: 15.0 mg/kg/injection, schedule: Q01DX001 (ip), vehicle: saline); 97 % of control (dose: 30.0 mg/kg/injection, schedule: Q01DX001 (ip), vehicle: saline); 96 % of control (dose: 75.0 mg/kg/injection, schedule: Q01DX001 (ip), vehicle: carboxymethylcellulose (CMC)).

In the case of `CC(=O)Nc1ccc(Cc2[nH]c(=O)[nH]c(=O)c2Br)cc1`, the T/C by setting is: under setting [10], 93 % of control; under setting [11], 93 % of control.

With `CC1B(O)Nc2nc(=S)[nH]c(N)c21` (stereo not drawn), the T/C reads like this: (dose: 100.0 mg/kg/injection, schedule: Q04DX003 (ip), vehicle: saline sonified) 104 % of control; (dose: 200.0 mg/kg/injection, schedule: Q04DX003 (ip), vehicle: saline sonified) 103 % of control.

Turning to `c1ccc(C2CC([P+](c3ccccc3)(c3ccccc3)c3ccccc3)=NN2)cc1` (stereo not drawn), the T/C by setting is: (dose: 3.12 mg/kg/injection, schedule: Q01DX009 (ip), vehicle: Klucel (hydroxypropylcellulose) (HPC)) 103 % of control; (dose: 6.25 mg/kg/injection, schedule: Q01DX009 (ip), vehicle: Klucel (hydroxypropylcellulose) (HPC)) 120 % of control; (dose: 6.25 mg/kg/injection, schedule: Q04DX003 (ip), vehicle: Klucel (hydroxypropylcellulose) (HPC)) 110 % of control; (dose: 12.5 mg/kg/injection, schedule: Q01DX002 (ip), vehicle: Klucel (hydroxypropylcellulose) (HPC)) 114 % of control; (dose: 12.5 mg/kg/injection, schedule: Q01DX009 (ip), vehicle: Klucel (hydroxypropylcellulose) (HPC)) 92 % of control; (dose: 12.5 mg/kg/injection, schedule: Q04DX003 (ip), vehicle: Klucel (hydroxypropylcellulose) (HPC)) 108 % of control. Further, the T/C was 104 % of control (dose: 25.0 mg/kg/injection, schedule: Q01DX001 (ip), vehicle: Klucel (hydroxypropylcellulose) (HPC)); 104 % of control (dose: 25.0 mg/kg/injection, schedule: Q01DX002 (ip), vehicle: Klucel (hydroxypropylcellulose) (HPC)); 108 % of control (dose: 25.0 mg/kg/injection, schedule: Q04DX003 (ip), vehicle: Klucel (hydroxypropylcellulose) (HPC)); 97 % of control (dose: 50.0 mg/kg/injection, schedule: Q01DX001 (ip), vehicle: Klucel (hydroxypropylcellulose) (HPC)); 97 % of control (dose: 50.0 mg/kg/injection, schedule: Q01DX002 (ip), vehicle: Klucel (hydroxypropylcellulose) (HPC)); 97 % of control (dose: 50.0 mg/kg/injection, schedule: Q04DX003 (ip), vehicle: Klucel (hydroxypropylcellulose) (HPC)).

With `C=CCO[Si](C=C)(OCC=C)OCC=C`, the T/C by setting is: under setting [1], 116 % of control; (dose: 150.0 mg/kg/injection, schedule: Q01DX001 (ip), vehicle: other) 95 % of control; (dose: 300.0 mg/kg/injection, schedule: Q01DX001 (ip), vehicle: other) 94 % of control.

Turning to `COc1ccc(/C=N\NC(=O)CNC(=O)Nc2cccc([N+](=O)[O-])c2)cc1O`, the T/C was 93 % of control under setting [2], 100 % of control under setting [3] and 96 % of control under setting [4].

As to `CCCCCCCCCCCC(=O)Nc1ccc(C(C)C)cc1`, the T/C under setting [6] was 102 % of control, the T/C under setting [8] was 87 % of control and the T/C under setting [9] was 92 % of control.

As for `CCCOc1ccc(-c2nc(-c3ccc(N=Cc4ccc(N(CCOS(C)(=O)=O)CCOS(C)(=O)=O)cc4Cl)cc3)cs2)cc1`, the T/C is, setting by setting: under setting [5], 107 % of control; under setting [10], 102 % of control; under setting [7], 100 % of control; under setting [11], 100 % of control; (dose: 200.0 mg/kg/injection, schedule: Q01DX009 (ip), vehicle: Klucel (hydroxypropylcellulose) (HPC)) 107 % of control; (dose: 400.0 mg/kg/injection, schedule: Q01DX001 (ip), vehicle: Klucel (hydroxypropylcellulose) (HPC)) 96 % of control.
